Assay results from paper PMC5290327, “SC83288 is a clinical development candidate for the treatment of severe malaria” (Nature Communications, 2017).
Converted amounts (≈) assume the structure as drawn.

How the values were obtained:
[1] = test system: P. falciparum strain Thai19; assay: Growth inhibition assay; type: cell-based; conditions: Plasmodium falciparum
[2] = Solubility in phosphate buffer; type: physicochemical
Description: (§1) SC81458 and SC83288 were soluble in water (890 and 940 μg ml^−1, respectively) and organic solvents. […] The compounds were stable in different physiological solutions, including artificial gastric juice, simulated intestinal fluid, phosphate-buffered saline and human plasma, when incubated for 6 h at 37 °C.

hERG channel = target: T1, hERG channel (Homo sapiens, UniProt Q12809); assay: hERG profiling, whole cell patch-clamp; type: cell-based
T1 construct: expressed in transfected cells; host or cells: HEK 293
T1 sequence (Q12809 whole entry): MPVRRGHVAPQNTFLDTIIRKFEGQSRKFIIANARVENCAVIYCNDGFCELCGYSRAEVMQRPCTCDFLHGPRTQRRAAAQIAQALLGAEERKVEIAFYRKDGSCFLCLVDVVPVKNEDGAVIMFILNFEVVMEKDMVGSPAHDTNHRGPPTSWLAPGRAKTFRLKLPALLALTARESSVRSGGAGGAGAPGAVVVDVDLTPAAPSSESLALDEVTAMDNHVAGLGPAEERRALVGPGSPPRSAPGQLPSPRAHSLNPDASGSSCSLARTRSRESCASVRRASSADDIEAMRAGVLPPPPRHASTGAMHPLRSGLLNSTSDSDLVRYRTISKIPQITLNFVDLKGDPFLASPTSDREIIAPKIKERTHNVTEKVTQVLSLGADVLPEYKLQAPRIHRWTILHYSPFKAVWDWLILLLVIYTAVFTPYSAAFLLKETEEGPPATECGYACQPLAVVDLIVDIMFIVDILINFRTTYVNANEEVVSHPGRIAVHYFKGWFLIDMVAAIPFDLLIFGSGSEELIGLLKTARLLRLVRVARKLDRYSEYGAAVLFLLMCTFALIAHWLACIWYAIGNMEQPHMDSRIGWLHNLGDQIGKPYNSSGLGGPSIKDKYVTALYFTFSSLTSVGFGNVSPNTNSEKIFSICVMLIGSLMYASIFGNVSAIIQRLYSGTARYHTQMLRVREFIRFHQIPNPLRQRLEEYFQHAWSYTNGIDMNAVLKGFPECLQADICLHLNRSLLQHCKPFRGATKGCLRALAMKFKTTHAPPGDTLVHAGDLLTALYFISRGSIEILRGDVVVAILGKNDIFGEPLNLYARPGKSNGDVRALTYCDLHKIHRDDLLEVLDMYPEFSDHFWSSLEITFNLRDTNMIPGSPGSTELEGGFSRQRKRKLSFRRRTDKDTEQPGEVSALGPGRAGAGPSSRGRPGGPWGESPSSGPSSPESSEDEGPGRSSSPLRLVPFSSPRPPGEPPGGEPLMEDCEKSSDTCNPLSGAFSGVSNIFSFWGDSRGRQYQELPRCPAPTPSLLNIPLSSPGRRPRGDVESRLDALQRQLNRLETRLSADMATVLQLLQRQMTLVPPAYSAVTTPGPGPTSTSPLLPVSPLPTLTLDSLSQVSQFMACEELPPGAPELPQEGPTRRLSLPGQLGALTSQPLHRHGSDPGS
Description: A HEK 293 cell line (Sigma Aldrich, catalogue number: 85120602) constitutively expressing the hERG channel in the membrane was used for the assay. The cells were cultured in MEM with Earle's salts and L-glutamine (10% FCS, non-essential amino acids, 300 μg ml^−1 Geneticin (G418)) and kept at 37 °C and under 5% CO2. Cells were routinely split every 3–4 days at a 1:5–1:10 ratio. The electrophysiological measurements were performed using the whole cell patch-clamp method. Extracellular bath solution contained 137 mM NaCl, 4 mM KCl, 1 mM MgCl2, 1.8 mM CaCl2, 10 mM glucose, 10 mM HEPES (pH 7.4 with NaOH), the intracellular pipette solution 130 mM KCl, 1 mM MgCl2, 5 mM MgATP, 5 mM EGTA and 10 mM HEPES (pH 7.2 with KOH). To assess the effects of SC81458 and SC83288 on the current through the hERG channel, a 1,500 ms of conditioning voltage pulse was applied every 20 s by the holding membrane potential (−80 mV) is carried out to +40 mV followed by a 500 ms test pulse of +40 mV to −40 mV. The amplitude of the current peak induced by the test pulse was determined at equilibrium (I0) and after (Idrug) addition of the substance. After the application of the substance, the cells were rinsed with extracellular bath solution until a complete recovery of the current occurred; otherwise, the cells were replaced with new ones.

[3] = Stability in physiological solutions; type: physicochemical; conditions: artificial gastric juice, simulated intestinal fluid, PBS, human plasma; 6 h at 37 °C
Description: as §1

[4] = Stability in cultured blood cell cultures; type: in vitro ADME; conditions: 2 μM, at least 6 h, 37 °C
Description: An enriched young trophozoite-stage culture of P. falciparum Dd2 was obtain by magnetic purification and allowed to recover for 1 h at 37 °C in RPMI 1640 medium (Life Technologies) enriched with 1% hypoxanthine (C.C.Pro GmbH) and […] (Life Technologies). The experiment was performed in a total volume of 300 μl, at a haematocrit of 50%, in presence or absence of 2 μM of SC81458 or SC83288, for 6 h at 37 °C under shaking conditions. Each sample was subsequently treated with 1.2 ml of ice-cold acetonitrile, incubated on ice for 10 min and centrifuged for 15 min at 6,000g at 4 °C. Supernatants were stored at −80 °C until mass spectrometric measurement.

[5] = test system: P. falciparum strains 3D7 and W2; assay: Efficacy in the Pf/NSG mouse model; type: in vivo, Plasmodium falciparum; conditions: for reduction of parasite burden within the first 24 h: 10.0 mg kg^−1 per day i.p.; for recrudescence of the infection: 3 weeks survey, exception 3D7-infected mice treated with 2.5 mg kg^−1 of SC81458; for In vivo PCT99.9%: i.p. once per day 4 days
Plasmodium berghei = assay: Ex vivo one-cycle growth inhibition assay; type: cell-based
Description: This was the case for both an in vivo 4 day dosing regimen of 30 mg kg^−1 per day and an ex vivo one-cycle growth inhibition assay. […] Differential therapeutic efficacy in various rodent model systems is a well-established phenomenon and is typically associated with charged compounds, such as positively charged amidines and negatively charged phosphoric acid or carboxylic acid containing drugs. The phenomenon is explained based on selective uptake of charged compounds through parasite-induced channels, termed new permeation pathways, in the host cell plasma membrane and species-specific characteristics of the new permeation pathways.

A1 (h) = target: T2, A1 (h) (Homo sapiens, UniProt P30542); assay: Radioligand binding
T2 construct: Cerep (contract study)
T2 sequence (P30542 whole entry): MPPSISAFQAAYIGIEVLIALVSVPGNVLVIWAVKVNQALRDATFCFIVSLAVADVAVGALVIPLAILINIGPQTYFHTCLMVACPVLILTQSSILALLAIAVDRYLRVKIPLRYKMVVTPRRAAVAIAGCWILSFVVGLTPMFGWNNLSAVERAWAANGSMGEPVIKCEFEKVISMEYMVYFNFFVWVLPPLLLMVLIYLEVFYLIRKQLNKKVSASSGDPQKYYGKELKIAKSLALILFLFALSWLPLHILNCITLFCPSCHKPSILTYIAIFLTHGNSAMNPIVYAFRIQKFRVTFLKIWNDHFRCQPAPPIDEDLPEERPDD

b2 (h) = target: T3, b2 (h) (Homo sapiens, UniProt P30411); type: binding
T3 construct: Cerep (contract study)
T3 sequence (P30411 whole entry): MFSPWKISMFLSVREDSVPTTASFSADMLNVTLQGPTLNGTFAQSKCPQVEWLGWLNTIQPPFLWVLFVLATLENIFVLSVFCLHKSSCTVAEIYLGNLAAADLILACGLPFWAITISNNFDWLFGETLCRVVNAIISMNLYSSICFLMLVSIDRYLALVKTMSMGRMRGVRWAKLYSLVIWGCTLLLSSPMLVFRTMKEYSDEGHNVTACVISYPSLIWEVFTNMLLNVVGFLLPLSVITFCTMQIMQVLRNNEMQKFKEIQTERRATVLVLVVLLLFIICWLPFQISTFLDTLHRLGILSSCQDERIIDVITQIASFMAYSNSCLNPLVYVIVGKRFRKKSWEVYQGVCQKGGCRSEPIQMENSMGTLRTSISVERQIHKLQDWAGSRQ

CCK1 (CCKA) (h) = target: T4, CCK1 (CCKA) (h) (Homo sapiens, UniProt P32238); assay: Radioligand binding
T4 construct: Cerep (contract study)
T4 sequence (P32238 whole entry): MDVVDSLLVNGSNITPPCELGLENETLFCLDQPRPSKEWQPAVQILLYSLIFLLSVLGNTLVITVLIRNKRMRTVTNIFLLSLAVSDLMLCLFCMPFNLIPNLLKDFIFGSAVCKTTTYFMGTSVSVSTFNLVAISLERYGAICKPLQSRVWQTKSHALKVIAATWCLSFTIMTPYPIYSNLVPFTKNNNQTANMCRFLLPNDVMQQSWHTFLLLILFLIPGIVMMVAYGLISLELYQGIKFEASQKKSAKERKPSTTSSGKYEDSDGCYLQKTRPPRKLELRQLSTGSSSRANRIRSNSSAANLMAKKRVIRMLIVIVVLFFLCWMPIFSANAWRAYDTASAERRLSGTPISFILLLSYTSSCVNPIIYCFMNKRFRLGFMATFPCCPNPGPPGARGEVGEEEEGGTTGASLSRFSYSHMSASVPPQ

GABA (non-selective) = assay: Radioligand binding
GAL2 (h) = target: T5, GAL2 (h) (Homo sapiens, UniProt O43603); assay: Radioligand binding
T5 construct: Cerep
T5 sequence (O43603 whole entry): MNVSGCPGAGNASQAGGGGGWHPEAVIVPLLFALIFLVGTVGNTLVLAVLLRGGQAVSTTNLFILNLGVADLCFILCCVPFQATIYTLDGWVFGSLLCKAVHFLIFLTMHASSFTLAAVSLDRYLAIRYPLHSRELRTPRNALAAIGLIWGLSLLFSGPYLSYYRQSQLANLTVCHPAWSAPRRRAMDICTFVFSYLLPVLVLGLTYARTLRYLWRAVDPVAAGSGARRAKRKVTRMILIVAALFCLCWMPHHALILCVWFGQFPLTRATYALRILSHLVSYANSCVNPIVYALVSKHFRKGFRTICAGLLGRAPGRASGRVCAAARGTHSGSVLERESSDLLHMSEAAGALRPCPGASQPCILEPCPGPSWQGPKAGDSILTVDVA

MT1 (ML1A) (h) = target: T6, MT1 (ML1A) (h) (Homo sapiens, UniProt P48039); assay: Radioligand binding
T6 construct: Cerep
T6 sequence (P48039 whole entry): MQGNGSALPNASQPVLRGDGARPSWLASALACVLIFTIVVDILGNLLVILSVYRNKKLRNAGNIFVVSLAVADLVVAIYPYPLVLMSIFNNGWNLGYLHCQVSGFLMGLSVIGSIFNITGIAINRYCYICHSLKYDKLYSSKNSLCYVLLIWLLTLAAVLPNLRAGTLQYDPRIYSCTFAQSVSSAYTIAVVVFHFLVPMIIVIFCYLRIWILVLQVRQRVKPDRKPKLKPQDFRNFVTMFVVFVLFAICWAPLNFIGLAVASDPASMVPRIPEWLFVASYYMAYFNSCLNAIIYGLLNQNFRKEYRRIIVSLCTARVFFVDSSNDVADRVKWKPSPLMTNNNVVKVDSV

M3 (h) = target: T7, M3 (h) (Homo sapiens, UniProt P20309); assay: Radioligand binding
T7 construct: Cerep
T7 sequence (P20309 whole entry): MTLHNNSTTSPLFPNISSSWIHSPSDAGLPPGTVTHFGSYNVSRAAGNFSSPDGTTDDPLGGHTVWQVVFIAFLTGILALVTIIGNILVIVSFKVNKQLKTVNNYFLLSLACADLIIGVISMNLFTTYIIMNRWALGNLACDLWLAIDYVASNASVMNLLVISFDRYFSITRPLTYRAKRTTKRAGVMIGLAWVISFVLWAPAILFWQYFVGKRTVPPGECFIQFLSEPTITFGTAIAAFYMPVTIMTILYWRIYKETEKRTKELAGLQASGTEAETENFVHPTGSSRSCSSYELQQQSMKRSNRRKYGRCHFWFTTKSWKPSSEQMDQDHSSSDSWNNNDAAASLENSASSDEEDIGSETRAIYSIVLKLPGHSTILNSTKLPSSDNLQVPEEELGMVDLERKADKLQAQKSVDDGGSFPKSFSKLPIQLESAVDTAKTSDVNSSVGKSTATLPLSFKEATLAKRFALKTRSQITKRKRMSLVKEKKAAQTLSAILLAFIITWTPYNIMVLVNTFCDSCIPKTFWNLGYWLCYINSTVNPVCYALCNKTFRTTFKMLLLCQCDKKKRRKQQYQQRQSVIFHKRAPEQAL

Y1 (h) = target: T8, Y1 (h) (Homo sapiens, UniProt P25929); assay: Radioligand binding
T8 construct: Cerep
T8 sequence (P25929 whole entry): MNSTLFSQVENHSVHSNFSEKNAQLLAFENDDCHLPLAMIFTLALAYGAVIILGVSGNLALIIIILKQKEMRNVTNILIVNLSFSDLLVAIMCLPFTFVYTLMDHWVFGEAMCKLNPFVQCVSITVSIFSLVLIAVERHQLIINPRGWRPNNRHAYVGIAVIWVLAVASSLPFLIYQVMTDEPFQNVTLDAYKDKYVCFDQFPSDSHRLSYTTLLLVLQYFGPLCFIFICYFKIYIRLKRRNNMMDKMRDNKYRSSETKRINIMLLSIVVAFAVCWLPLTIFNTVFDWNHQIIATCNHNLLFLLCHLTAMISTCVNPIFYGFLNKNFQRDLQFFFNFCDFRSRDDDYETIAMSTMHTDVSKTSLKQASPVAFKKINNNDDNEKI

k (KOP) = target: T9, k (KOP) (Rattus norvegicus, UniProt P34975); assay: Radioligand binding
T9 construct: Cerep
T9 sequence (P34975 whole entry): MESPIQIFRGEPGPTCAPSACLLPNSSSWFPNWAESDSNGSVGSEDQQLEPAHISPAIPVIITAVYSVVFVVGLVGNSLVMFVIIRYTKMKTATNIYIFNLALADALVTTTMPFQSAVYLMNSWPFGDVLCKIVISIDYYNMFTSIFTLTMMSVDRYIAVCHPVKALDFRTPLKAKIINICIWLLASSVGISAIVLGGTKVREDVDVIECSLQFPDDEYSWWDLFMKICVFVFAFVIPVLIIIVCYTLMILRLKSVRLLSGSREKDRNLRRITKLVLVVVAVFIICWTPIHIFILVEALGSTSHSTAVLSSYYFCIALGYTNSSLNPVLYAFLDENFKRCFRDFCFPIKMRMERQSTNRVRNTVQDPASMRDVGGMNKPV

m (MOP) (h) = target: T10, m (MOP) (h) (Homo sapiens, UniProt P35372); assay: Radioligand binding
T10 construct: Cerep
T10 sequence (P35372 whole entry): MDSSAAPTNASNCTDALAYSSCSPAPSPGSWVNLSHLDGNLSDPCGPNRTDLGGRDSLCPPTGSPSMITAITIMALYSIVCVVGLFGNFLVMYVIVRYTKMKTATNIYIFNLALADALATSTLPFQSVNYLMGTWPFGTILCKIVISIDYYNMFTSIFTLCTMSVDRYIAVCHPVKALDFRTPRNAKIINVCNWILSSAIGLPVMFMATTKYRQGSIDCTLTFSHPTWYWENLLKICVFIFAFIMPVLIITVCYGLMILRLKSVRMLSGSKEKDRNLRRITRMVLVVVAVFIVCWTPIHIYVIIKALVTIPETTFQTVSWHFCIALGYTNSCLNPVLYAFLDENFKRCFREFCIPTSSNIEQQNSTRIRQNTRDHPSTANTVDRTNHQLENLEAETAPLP

NOP (ORL1) (h) = target: T11, NOP (ORL1) (h) (Homo sapiens, UniProt P41146); assay: Radioligand binding
T11 construct: Cerep

Cl- channel (GABA-gated) = assay: Radioligand binding
[6] = test system: human peripheral blood macrophages; assay: Cytotoxicity; conditions: 50 μM
[7] = test system: cytoplasmic free Ca2+ in P. falciparum HB3 trophozoites; assay: Ca2+ live imaging, Fluo-4; conditions: SC compounds 10 and 20 μM; CPA 10 μM
[8] = In vitro micronucleus assay; conditions: 60 μM
[9] = In vitro metabolism in liver microsomes; conditions: for remaining after 60 min of incubation: human liver microsomes, 10 μM; for microsomal CLint at 10 μM: human, liver microsomes
[10] = In vitro metabolism in liver microsomes; conditions: monkey liver microsomes, 10 μM

| SMILES | IC50 [1] [nM] | solubility ([2]; pH 4, aqueous buffer) [µM] | solubility ([2]; pH 9, aqueous buffer) [µM] | stability in physiological solutions [3] | stability in human red blood cells and P. falciparum cultures [4] | reduction of parasite burden within the first 24 h [5] [%] | recrudescence of the infection [5] | In vivo PCT99.9% ([5]; humanized NSG mouse) [h] | activity, ex vivo one-cycle growth inhibition assay (Plasmodium berghei) | Inhibition of control specific binding (A1 (h)) [%] | Inhibition of control specific binding (b2 (h)) [%] | Inhibition of control specific binding (CCK1 (CCKA) (h)) [%] | Inhibition of control specific binding (GABA (non-selective)) [%] | Inhibition of control specific binding (GAL2 (h)) [%] | Inhibition of control specific binding (MT1 (ML1A) (h)) [%] | Inhibition of control specific binding (M3 (h)) [%] | Inhibition of control specific binding (Y1 (h)) [%] | Inhibition of control specific binding (k (KOP)) [%] | Inhibition of control specific binding (m (MOP) (h)) [%] | Inhibition of control specific binding (NOP (ORL1) (h)) [%] | other results |
| --- | --- | --- | --- | --- | --- | --- | --- | --- | --- | --- | --- | --- | --- | --- | --- | --- | --- | --- | --- | --- | --- |
| CCCCN1CCN(C(=N)c2cccc(NC(=O)Nc3ccc(S(=O)(=O)NCc4ccc(S(N)(=O)=O)cc4)cc3)c2)CC1 [SC81458, 4-(3-(3-((4-butylpiperazin-1-yl)(imino)methyl)phenyl)ureido)-N-(4-sulfamoylbenzyl) benzenesulfonamide] | 7 ± 1 | 1800 (≈ 1130 µg/mL) | 400 (≈ 251 µg/mL) | stable | stable | ~97 | no recrudescence | <48 | inactive | 7 | 7 | 0 | 14 | -15 | -5 | 48 | 0 | 43 | 24 | 2 | hERG activity retained (hERG channel; 60 μM): > 90%; Inhibition of control specific binding (Cl- channel (GABA-gated)): -28%; in vitro propagation / cytotoxicity [6]: did not affect; effect on cytoplasmic free Ca^2+ [7]: did not affect; mutagenic or clastogenic activity, in vitro micronucleus assay [8]: no signs; remaining after 60 min of incubation [9]: almost completely metabolized; microsomal CLint at 10 μM ([9]; monkey): 303 µL/min/mg; remaining after 60 min of incubation [10]: almost completely metabolized |
| COC(=O)N1CCN(C(=N)c2cccc(NC(=O)Nc3ccc(S(=O)(=O)NCc4ccc(S(N)(=O)=O)cc4)cc3)c2)CC1 [SC83288, methyl 4-(imino(3-(3-(4-(N-(4-sulfamoylbenzyl)sulfamoyl)phenyl)ureido)phenyl)methyl) piperazine-1-carboxylate] | 4 ± 1 | 2600 (≈ 1640 µg/mL) | 800 (≈ 504 µg/mL) | stable | stable | ~93 | no recrudescence | 48 | inactive | 8 | -4 | -5 | 6 | 4 | -16 | 55 | 0 | 36 | 25 | 10 | hERG activity retained (hERG channel; 20 μM): > 90%; hERG channel remaining active (hERG channel; 100 μM): 50%; free-minimal parasiticidal concentration (MPC) ([5]; NSG mice): 200 nM; ED50 (free plasma concentration) ([5]; NSG mice, 2 days after commencement of treatment, sigmoidal model fit): 45 nM; ED90 (free plasma concentration) ([5]; NSG mice, sigmoidal model fit): 80 nM; reduction of parasitemia over a replicative cycle of 48 h ([5]; humanized NSG mouse): 99.9%; In vivo logPRR ([5]; humanized NSG mouse, no distinction between strains): 3.0; Inhibition of control specific binding (Cl- channel (GABA-gated)): -37%; in vitro propagation / cytotoxicity [6]: did not affect; effect on cytoplasmic free Ca^2+ [7]: did not affect; mutagenic or clastogenic activity, in vitro micronucleus assay [8]: no signs; remaining after 60 min of incubation [9]: 50%; microsomal CLint at 10 μM [9]: 75.8 ± 2.5 µL/min/mg; remaining after 60 min of incubation [10]: 51% |
